Patent publication US6545010B2, “Composition comprising camptothecin or a camptothecin derivative and a platin derivative for the treatment of cancer” (priority 2000, dated 2003)

Assays:
P388/CPT = test: Chemosensitivity of camptothecin-resistant i.p. P388/CPT leukemia, increase in life span; format: in vivo, mice; details: for %ILS: P388/CPT, highest non-toxic dose
Protocol: (§1) Cross-resistance was measured in murine leukemia cell lines.
(§2) ILS=100×[(median day of death (MDD) of treated mice)−(MDD control mice)]÷(MDD control mice)
(§3) Table III tabulates the results from this study.

Colon Adenocarcinoma C51 = test: CPT-11, cisplatin and combination, three-arm study in mice bearing colon adenocarcinoma C51; details: for LCK / HNTD Dose: C51 sc; for T/C: tumor growth delay
Protocol: This efficacy may be quantified, for example, by the log10 cell kill, which is determined by the following formula: […]
An agent is considered to be active if log10 cell kill is greater than or equal to 0.7. An agent is considered to be very active if the log10 cell kill is greater than 2.8.
In the first arm, four dose levels of CPT-11 were given orally on days four through seven, twice daily. […] This third arm illustrated an example of semi-simultaneous administration.
The LD10 for the single agent was obtained by plotting the toxicity of that agent and the dosage in mg/kg as a log probit graph. Subsequently, the CTI LD10 was obtained by plotting as a log probit graph the observed lethality and the corresponding CTI calculated as the sum of the fraction of the LD10 of each single agent.

[1] = Tolerance and maximum tolerated dose of oral vs i.v. irinotecan in tumor bearing mice; format: in vivo; details: all five tumor models, three mice strains
Protocol: (§4) The effectiveness of irinotecan combination chemotherapy methods were tested in a dose response study in a murine tumor model. Three arms were evaluated for tolerance and efficacy. Tolerance was measured by mortality, body weight loss at nadir, host recovery time, and combination toxicity index. Efficacy end points for solid tumor models were tumor growth delay (T/C), log10 cell kill (LCK, defined above), tumor regressions (i.e., complete remission (CR), or partial remission (PR)). For non-solid tumors, such as leukemia, efficacy was measured as the increase in life span (ILS).

[2] = test system: Glasgow osteosarcoma (GOS); test: CPT-11 i.v. with oxaliplatin i.v., GOS sc; format: in vivo, mice
Protocol: as §4

P388 = test: Chemosensitivity of P388 leukemia, increase in life span; format: in vivo, mice; details: P388, agent i.v., highest non-toxic dose
Protocol: as §1, §2, §3

[3] = test system: Glasgow osteosarcoma (GOS); test: CPT-11 p.o. with oxaliplatin i.v., GOS sc; format: in vivo, mice; details: days 4-8
Protocol: as §4

[4] = CPT-11 p.o. 31.5 mg/kg/adm, days 4-7 twice/day
[5] = CPT-11 p.o. 50.8 mg/kg/adm, days 4-7 twice/day
[6] = Cisplatin i.v. 1.9 mg/kg/adm, days 4, 7
[7] = Cisplatin i.v. 3.1 mg/kg/adm, days 4, 7

Structure (SMILES): CC[C@@]1(O)C(=O)OCc2c1cc1n(c2=O)Cc2cc3ccccc3nc2-1 [CPT, camptothecin]
- Comment (sensitivity of P388/CPT) (P388/CPT; agent s.c.): resistant

Structure (SMILES): CCc1c2c(nc3ccc(OC(=O)N4CCC(N5CCCCC5)CC4)cc13)-c1cc3c(c(=O)n1C2)COC(=O)[C@]3(O)CC [CPT-11, irinotecan]
- LCK (Colon Adenocarcinoma C51; CPT-11 p.o. alone at HNTD, days 4-7, twice daily): 1.1
- HNTD Dose (Colon Adenocarcinoma C51; CPT-11 p.o. alone, days 4-7, twice daily): 406 mg/kg
- Comments (Colon Adenocarcinoma C51; [4]): Marginal Activity
- Log10 cell kill (Colon Adenocarcinoma C51; [4]): 0.7
- Time for Median tumor to reach 1000 mg (Colon Adenocarcinoma C51; [4]): 25.5 days
- T/C (Colon Adenocarcinoma C51; [4]): 6.0 days
- Time for Median tumor to reach 1000 mg (Colon Adenocarcinoma C51; [5]): 29.4 days
- T/C (Colon Adenocarcinoma C51; [5]): 9.9 days
- efficacy in tumor bearing mice, oral vs i.v. administration [1]: similar
- Comment (sensitivity of P388/CPT) (P388/CPT; agent i.v.): resistant
- HNTD Dose ([2]; CPT-11 i.v. alone, days 3, 5, 7 twice daily): 349.8 mg/kg

Structure (SMILES): N.N.[Cl][Pt][Cl] [Cisplatin, cis-diaminedichloroplatinum]
- LCK (Colon Adenocarcinoma C51; cisplatin i.v. alone at HNTD, days 4, 7): 3.3
- HNTD Dose (Colon Adenocarcinoma C51; cisplatin i.v. alone, days 4, 7): 6.2 mg/kg
- Log10 cell kill (Colon Adenocarcinoma C51; [6]): 1.3
- Time for Median tumor to reach 1000 mg (Colon Adenocarcinoma C51; [6]): 30.8 days
- T/C (Colon Adenocarcinoma C51; [6]): 11.3 days
- Log10 cell kill (Colon Adenocarcinoma C51; [7]): 3.3
- Time for Median tumor to reach 1000 mg (Colon Adenocarcinoma C51; [7]): 48.1 days
- T/C (Colon Adenocarcinoma C51; [7]): 28.6 days
- %ILS (P388): 73%
- %ILS (P388/CPT; agent i.v.): 153%
- Comment (sensitivity of P388/CPT) (P388/CPT; agent i.v.): sensitive

Structure (SMILES): O=C1[O][Pt]2([NH][C@@H]3CCCC[C@H]3[NH]2)[O]C1=O [Oxaliplatin, oxaliplatin]
- %ILS (P388): 0%
- %ILS (P388/CPT; agent i.v.): 86%
- Comment (sensitivity of P388/CPT) (P388/CPT; agent i.v.): sensitive
- LCK ([2]; oxaliplatin i.v. alone at HNTD, days 3, 5, 7): 2.3
- HNTD Dose ([2]; oxaliplatin i.v. alone, days 3, 5, 7): 10.2 mg/kg
- LCK ([3]; oxaliplatin i.v. alone at HNTD): 2.0
- HNTD Dose ([3]; oxaliplatin i.v. alone): 16.0 mg/kg
